According to patent publication US11655239B2 (SHANGHAI INSTITUTE OF MATERIAL MEDICA, CHINESE ACADEMY OF …, priority 2019, dated 2023):
pIC50: −log10 of the molar value.

Tests used:
EGFR = EGFR (Homo sapiens (Human), UniProt P00533); test: Enzyme selectivity test (ELISA), EGFR; format: biochemical
Protocol: (§1) 1) Enzyme reaction substrate Poly(Glu, Tyr) 4:1 was diluted to 20 μg/mL with potassium-free PBS (10 mM sodium phosphate buffer, 150 mM NaCl, pH 7.2-7.4), and the microtiter plate was coated with 125 μL/well and placed at 37° C. for 12-16 hours of reaction. The liquid in the well was discard. The plate was washed three times with T-PBS (potassium-free PBS containing 0.1% Tween-20, 200 μL/well), 5 minutes each time. The ELISA plate was dried in an oven at 37° C. for 1 to 2 hours.
(§2) 2) Reaction buffer (50 mM HEPES pH 7.4, 50 mM MgCl2, 0.5 mM MnCl2, 0.2 mM Na3VO4, 1 mM DTT) diluted ATP solution (49 μL) was added to each well, 1 μL of the compound to be tested was added to each well, and then 50 μL of DDR2 kinase domain recombinant protein diluted in the reaction buffer was added to start the reaction. Two control wells without ATP were set in each experiment. The plate placed on a shaker (100 rpm) at 37° C. for 1 hour of reaction. The liquid in the well was discarded and the plate was washed three times with T-PBS.
(§3) 3) Antibody PY99 dilution solution (the antibody was diluted 1:500 with T-PBS containing BSA 5 mg/mL) was added at 100 μL/well, and shaken on a shaker at 37° C. for 0.5 hour of reaction. The liquid in the well was discarded and the plate was washed three times with T-PBS.
(§4) 4) Horseradish peroxidase labeled goat anti-murine secondary antibody dilution solution (the antibody is diluted 1:2000 with T-PBS containing BSA 5 mg/ml) was added at 100 μL/well, and shaken on a shaker at 37° C. for 0.5 hour of reaction. The liquid in the well was discarded and the plate was washed three times with T-PBS.
(§5) 5) 2 mg/ml of OPD color developing solution [diluted with 0.1 M citric acid-sodium citrate buffer (pH=5.4) containing 0.03% H2O2] was added at 100 μL/well and reacted for 1 to 10 minutes at 25° C. in the dark.
(§6) 6) 2M H2SO4 was added at 50 μL/well to stop the reaction, and a tunable wavelength microplate reader VERSAmax was used for reading at a wavelength of 490 nm.
(§7) The IC50 value was obtained by four-parameter regression using the software that came with the microplate reader. […]

Abl = Abl (Homo sapiens (Human), UniProt P00519); test: Enzyme selectivity test (ELISA), Abl; format: biochemical
Chain of Abl (P00519 whole entry, species assumed): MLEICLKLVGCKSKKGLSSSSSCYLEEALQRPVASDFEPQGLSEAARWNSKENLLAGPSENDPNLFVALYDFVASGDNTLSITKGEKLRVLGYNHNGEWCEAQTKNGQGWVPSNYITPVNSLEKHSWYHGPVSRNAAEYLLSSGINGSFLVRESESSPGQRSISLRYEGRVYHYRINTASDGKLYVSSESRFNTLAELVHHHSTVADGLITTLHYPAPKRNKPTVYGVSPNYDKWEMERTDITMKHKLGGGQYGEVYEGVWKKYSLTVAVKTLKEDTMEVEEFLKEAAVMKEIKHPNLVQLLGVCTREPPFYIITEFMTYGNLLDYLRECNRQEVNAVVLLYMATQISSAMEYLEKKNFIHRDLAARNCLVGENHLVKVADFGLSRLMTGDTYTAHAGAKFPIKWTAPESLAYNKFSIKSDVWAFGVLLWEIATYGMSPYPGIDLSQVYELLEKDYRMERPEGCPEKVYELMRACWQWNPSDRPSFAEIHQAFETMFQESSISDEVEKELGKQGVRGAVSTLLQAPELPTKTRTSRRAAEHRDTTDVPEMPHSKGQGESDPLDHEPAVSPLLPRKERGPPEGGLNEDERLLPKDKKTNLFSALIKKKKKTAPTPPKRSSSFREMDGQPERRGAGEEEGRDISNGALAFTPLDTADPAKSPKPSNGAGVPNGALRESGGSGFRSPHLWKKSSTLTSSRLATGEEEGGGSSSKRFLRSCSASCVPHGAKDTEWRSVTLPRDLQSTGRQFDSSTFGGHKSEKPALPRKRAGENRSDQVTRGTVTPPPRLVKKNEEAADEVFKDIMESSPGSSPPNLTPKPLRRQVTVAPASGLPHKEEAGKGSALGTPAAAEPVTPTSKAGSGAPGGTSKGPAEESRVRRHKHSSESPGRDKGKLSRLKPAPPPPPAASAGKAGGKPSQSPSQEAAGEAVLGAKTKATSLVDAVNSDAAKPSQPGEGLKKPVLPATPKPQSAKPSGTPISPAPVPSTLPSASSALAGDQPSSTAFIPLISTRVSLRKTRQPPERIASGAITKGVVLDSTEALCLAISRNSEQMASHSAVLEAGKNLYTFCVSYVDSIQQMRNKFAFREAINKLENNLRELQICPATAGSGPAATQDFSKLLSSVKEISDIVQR
Protocol: as §1, §2, §3, §4, §5, §6, §7

KDR = KDR (Homo sapiens (Human), UniProt P35968); test: Enzyme selectivity test (ELISA), KDR; format: biochemical
Chain of KDR (P35968 20-1356, species assumed): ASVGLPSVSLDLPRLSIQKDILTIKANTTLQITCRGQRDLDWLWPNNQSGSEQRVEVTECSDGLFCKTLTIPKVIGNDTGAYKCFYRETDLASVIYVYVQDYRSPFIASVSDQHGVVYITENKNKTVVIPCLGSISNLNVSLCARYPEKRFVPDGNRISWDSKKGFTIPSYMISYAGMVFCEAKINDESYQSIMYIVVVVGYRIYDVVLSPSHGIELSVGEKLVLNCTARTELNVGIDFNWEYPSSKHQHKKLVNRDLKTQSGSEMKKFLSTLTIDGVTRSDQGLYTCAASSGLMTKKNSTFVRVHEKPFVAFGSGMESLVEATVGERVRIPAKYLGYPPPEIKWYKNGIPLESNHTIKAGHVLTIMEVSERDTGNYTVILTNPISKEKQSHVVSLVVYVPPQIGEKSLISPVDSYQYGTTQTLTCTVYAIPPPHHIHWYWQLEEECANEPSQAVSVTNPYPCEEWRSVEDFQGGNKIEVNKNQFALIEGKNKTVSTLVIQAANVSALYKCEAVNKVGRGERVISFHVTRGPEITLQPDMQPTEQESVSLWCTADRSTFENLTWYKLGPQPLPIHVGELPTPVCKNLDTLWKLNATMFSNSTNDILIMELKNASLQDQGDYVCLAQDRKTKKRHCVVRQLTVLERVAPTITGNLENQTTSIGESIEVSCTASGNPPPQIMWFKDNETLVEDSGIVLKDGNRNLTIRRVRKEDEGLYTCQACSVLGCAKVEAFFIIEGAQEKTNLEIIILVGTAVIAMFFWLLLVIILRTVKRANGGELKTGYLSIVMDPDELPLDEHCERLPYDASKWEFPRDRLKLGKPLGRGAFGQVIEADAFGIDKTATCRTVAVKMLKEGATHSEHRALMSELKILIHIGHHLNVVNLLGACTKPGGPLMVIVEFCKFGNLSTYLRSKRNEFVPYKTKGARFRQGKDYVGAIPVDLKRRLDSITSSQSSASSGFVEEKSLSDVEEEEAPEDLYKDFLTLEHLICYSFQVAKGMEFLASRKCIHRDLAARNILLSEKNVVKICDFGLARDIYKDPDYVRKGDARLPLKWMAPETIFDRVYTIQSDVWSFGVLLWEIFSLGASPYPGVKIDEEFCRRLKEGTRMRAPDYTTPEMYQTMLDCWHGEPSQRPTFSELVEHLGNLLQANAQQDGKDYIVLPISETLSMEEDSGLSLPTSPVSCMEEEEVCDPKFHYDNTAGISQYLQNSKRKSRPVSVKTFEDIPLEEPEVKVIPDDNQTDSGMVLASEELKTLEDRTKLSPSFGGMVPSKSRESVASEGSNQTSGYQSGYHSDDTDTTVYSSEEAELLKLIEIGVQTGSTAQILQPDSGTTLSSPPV
Protocol: as §1, §2, §3, §4, §5, §6, §7

[1] = test system: pulmonary fibrosis induced by bleomycin in mice; test: Active TGF-β1 in BALF (ELISA); format: in vivo, mouse; details: 90 mg/kg; reduced from 123 pg/ml in BLM group
Protocol: The expression level of active TGF-β1 in BALF was detected by using the TGF-β1 ELISA detection kit (Shanghai Wuhao Bio-Tech Co., Ltd). The steps are as follows:
1) 10 standard wells were set on the enzyme coated plate. After the standard was diluted, the volume in each well was 50 μl, and the concentration was 1800 ng/L, 1200 ng/L, 600 ng/L, 300 ng/L, 150 ng/L, respectively. The concentration was the same every two tubes.
2) Sample addition: a blank well (no sample and enzyme reagent) and a well for the sample to be tested were set, respectively. 40 μl of sample dilution solution was added to the well for the sample to be tested on the enzyme coated plate, and then 10 μl of the sample to be tested was added.
3) Incubation: the sample to be tested was sealed with a sealing film and then incubated at 37° C. for 30 minutes.
4) Solution preparation: the concentrated washing liquid (30 times (20 times of 48T)) was diluted 30 times (20 times of 48T) with distilled water for use.
5) Wash: the liquid was discarded and spun dry. Each well was filled with the washing liquid. After standing for 30 seconds, the washing liquid was discarded. This was repeated 5 times and pat dry. […]
10) Determination: zero setting was performed using a blank well within 15 minutes after the reaction was stopped, and the absorbance (OD value) of each well was measured in sequence at a wavelength of 450 nm.

[2] = test system: pulmonary fibrosis induced by bleomycin in mice; test: mRNA levels of fibrosis-related markers in lung tissue (qRT-PCR); format: in vivo, mouse; details: 60, 90 mg/kg
Protocol: About 30 mg of cryopreserved lung tissue was weighed and homogenized and lysed by adding 200 μL of Trizol (Takara, 9109 #). The fluid after the lysis in the well was collected by the RNA sterilization-grade pipette tip and transferred to the corresponding sterile EP tube. […] of chloroform was added, shaken vigorously for 30 sec, and centrifuged for 15 minutes in a centrifuge at 4° C. at 12000 rpm. The upper aqueous layer was transferred to a new EP tube, an equal volume of isopropanol was used to precipitate the RNA in the aqueous phase, and the tube was allowed to stand at −20° C. for more than 1 hr. And then the tube was centrifuged for 15 min at 4° C. at 12000 rpm, and the supernatant was discarded. 75% ethanol was added to wash the RNA pellet, and then the tube was centrifuged for 15 min at 4° C. at 12000 rpm, and the supernatant was discarded. The tube was placed at room temperature for 10-20 min to dry the RNA pellet. 25-200 μL of RNase-free water was added for dissolution and stored at −80° C.
PrimeScript™ RT Master Mix (Takara, RR036A) was selected for mRNA reverse transcription. Please refer to the instructions for the system. In short, 1 μg of mRNA was added to a 20 μL system, mixed and then kept at a constant temperature in a 37° C. water bath for 15 minutes, and then the enzyme was inactivated at 85° C. for 5 seconds. After centrifugation, double distilled water was used to dilute 10 times.
Q-PCR technology used 2×SYBR Green qPCR Master Mix (B21202, Biomake), and the reaction system could be prepared according to the instruction (10 μL of 2×SYBGreen, 8.8 μL of cDNA template, 1.2 μL of 5 μM primer Mix). The reaction conditions are: pre-denaturation at 95° C. for 5 min, denaturation at 95° C. for 30 sec, annealing at 60° C. for 30 sec, and extension at 72° C. for 30 sec, the number of reaction cycles is 40 cycles.
The experiment used qRT-PCR technology to determine the mRNA levels of fibrosis-related markers in lung tissue.
The experimental method was the same as that for the evaluation of the mRNA levels of inflammatory cytokines.

Chain of EGFR (P00533 25-1210, species assumed): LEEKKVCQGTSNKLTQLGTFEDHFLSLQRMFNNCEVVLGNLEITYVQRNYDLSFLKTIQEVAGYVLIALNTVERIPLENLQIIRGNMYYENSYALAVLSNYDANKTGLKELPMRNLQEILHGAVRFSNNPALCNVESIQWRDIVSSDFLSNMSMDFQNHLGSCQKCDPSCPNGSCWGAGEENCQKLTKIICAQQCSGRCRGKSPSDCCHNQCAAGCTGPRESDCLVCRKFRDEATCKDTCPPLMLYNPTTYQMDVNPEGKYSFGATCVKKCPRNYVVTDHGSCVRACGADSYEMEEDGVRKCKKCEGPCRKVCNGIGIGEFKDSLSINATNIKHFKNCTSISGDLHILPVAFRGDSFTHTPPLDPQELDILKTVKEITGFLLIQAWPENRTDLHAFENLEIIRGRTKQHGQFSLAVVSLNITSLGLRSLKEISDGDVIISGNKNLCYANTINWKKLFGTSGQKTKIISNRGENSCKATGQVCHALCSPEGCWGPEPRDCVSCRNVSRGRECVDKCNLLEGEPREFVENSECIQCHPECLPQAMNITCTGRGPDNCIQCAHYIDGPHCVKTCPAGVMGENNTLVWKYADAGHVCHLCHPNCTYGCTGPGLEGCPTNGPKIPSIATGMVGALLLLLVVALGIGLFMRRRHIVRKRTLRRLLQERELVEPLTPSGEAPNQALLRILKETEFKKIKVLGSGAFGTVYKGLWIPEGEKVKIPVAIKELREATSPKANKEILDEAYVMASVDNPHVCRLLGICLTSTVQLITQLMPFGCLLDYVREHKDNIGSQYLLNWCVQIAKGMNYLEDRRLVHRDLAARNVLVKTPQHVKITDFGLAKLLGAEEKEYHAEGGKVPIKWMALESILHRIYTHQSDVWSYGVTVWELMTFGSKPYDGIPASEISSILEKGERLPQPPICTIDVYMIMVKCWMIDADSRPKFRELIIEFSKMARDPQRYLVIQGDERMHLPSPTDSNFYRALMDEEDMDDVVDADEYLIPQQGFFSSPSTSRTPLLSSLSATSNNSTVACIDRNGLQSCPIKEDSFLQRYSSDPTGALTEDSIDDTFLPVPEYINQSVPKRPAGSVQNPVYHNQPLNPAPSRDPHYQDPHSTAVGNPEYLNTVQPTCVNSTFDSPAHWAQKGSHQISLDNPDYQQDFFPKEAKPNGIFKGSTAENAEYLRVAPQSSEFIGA

For `O=C(Nc1cccc(C(F)(F)F)c1)c1ccc(C2CC2)c(-c2ccc3nc(Nc4cnn(C5CC5)c4)ncc3c2)c1` [Compound S15, 4-cyclopropyl-3-(2-((1-cyclopropyl-1H-pyrazol-4-yl)amino)quinazolin-6-yl)-N-(3-(trifluoromethyl)phenyl)benzamide], the pIC50 (EGFR) was less than 6.00, the pIC50 (Abl) was greater than 8.00 and the pIC50 (KDR) was greater than 8.00. For the same compound, the “active TGF-β1 in BALF” value [1] was 48 pg/mL, the “reduction of expression (mRNA) of Collagen1-α1” value [2] was “about 90%” and the “reduction of expression (mRNA) of TGF-β1” value [2] was “about 90%”. For the same compound, the “reduction of expression (mRNA) of α-SMA” value [2] was “about 90%”.
